Measurements reported in patent US12037344B2, “NLRP3 modulators” (INNATE TUMOR IMMUNITY, INC., priority 2018, dated 2024).
Like-named read-outs stand apart in the source and are kept apart here.

Columns and labels:
[1] = tested on: THP-1 cells; test: Measurement of IL-1β production, hTRF protocol (second alternative procedure), THP-1 cells; format: cell-based, human; settings: Homo sapiens
Method in brief: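 Compounds, dilution series starting at a final 10 μM, were incubated 2 hours at 37° C with PMA-differentiated THP-1 cells (50 ng/ml overnight; 50,000 cells/well, 2% FBS RPMI). Released IL-1β quantified in supernatant by hTRF kit with 1:40 antibody dilution, 4° C overnight, 665/615 nm ratio.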

[2] = target: T1, TLR8 (Homo sapiens, UniProt Q9NR97); test: In vitro human TLR8 binding reporter assay (HEK-Blue, NF-kB/AP1-inducible SEAP); format: cell-based; settings: read-out: TLR8 Agonist EC50
T1 construct: human HEK-Blue cells co-expressing a TLR7 or TLR8 gene
T1 sequence (Q9NR97 27-1041): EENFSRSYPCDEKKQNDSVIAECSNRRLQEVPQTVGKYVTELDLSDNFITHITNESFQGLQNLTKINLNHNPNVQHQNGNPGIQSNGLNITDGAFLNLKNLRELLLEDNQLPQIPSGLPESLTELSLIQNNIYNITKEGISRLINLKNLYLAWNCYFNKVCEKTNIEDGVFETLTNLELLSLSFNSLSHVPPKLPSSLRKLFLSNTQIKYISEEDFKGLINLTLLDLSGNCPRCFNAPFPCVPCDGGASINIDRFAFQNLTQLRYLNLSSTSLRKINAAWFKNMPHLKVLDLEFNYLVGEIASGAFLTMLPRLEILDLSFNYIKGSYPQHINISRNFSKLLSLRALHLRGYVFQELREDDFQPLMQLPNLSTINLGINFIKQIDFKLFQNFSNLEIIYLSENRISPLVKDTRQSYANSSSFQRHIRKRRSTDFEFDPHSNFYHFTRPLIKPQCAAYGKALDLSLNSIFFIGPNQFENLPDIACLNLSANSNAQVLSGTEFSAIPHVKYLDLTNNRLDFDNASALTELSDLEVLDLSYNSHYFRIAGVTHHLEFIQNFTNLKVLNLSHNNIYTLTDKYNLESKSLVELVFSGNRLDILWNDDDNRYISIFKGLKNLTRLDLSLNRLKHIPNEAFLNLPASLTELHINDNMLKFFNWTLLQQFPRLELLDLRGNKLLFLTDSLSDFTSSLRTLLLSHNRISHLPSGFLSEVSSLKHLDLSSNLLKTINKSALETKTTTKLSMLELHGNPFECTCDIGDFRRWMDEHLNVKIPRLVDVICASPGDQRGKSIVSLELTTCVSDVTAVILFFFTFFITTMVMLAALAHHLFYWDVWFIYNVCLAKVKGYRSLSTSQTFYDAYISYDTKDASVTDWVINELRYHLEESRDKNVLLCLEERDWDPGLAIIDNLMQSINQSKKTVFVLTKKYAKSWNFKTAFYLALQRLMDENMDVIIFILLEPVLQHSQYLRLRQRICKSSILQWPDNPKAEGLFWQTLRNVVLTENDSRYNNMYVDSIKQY
Method in brief: (§1)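 EC50s come from NF-kB/AP1-driven SEAP secretion in HEK-Blue cells expressing TLR7 or TLR8, measured with Quanti-Blue after an 18 h compound incubation. Maximal response is defined by a 50 μM reference standard.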

[3] = target: T2, TLR7 (Homo sapiens, UniProt Q9NYK1); test: In vitro human TLR7 binding reporter assay (HEK-Blue, NF-kB/AP1-inducible SEAP); format: cell-based; settings: read-out: TLR7 Agonist EC50
T2 construct: human HEK-Blue cells co-expressing a TLR7 or TLR8 gene
T2 sequence (Q9NYK1 27-1049): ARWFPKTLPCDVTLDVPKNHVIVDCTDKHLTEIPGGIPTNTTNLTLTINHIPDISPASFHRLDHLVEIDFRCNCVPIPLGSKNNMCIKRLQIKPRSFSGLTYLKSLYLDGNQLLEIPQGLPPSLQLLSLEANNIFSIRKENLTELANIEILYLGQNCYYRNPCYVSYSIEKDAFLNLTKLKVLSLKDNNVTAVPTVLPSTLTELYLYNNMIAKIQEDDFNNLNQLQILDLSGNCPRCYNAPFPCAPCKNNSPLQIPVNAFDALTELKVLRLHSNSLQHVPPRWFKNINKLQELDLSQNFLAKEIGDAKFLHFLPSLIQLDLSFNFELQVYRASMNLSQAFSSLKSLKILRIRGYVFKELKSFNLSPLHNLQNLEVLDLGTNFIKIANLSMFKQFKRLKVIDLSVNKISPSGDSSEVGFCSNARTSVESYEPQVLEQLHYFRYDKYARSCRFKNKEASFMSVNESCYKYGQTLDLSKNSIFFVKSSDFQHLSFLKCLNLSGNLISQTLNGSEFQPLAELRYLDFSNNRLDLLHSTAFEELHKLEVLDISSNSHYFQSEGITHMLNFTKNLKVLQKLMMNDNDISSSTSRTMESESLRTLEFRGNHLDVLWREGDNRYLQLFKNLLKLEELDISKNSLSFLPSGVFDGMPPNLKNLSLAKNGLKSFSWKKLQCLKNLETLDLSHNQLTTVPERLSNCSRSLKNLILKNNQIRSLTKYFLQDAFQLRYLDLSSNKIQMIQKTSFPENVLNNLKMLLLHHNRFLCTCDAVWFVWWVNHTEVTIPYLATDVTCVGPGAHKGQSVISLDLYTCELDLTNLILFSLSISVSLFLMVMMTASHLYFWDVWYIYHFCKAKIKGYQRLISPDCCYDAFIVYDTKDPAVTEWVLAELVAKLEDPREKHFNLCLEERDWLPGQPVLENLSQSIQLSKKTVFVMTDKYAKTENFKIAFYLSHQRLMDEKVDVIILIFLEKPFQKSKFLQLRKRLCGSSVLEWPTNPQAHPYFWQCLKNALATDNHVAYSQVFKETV
Method in brief: as §1

[4] = THP-1, IL-1β production, human, read-out: NLRP3 hILIB EC50
[5] = THP-1, IL-1β production, human cells, read-out: NLRP3 hILIB EC50
[6] = THP-1, read-out: NLRP3 hILIB EC50

SMILES | EC50 [1, 4] [µM] | EC50 ([2]; activity range class) [µM] | EC50 ([3]; activity range class) [µM] | EC50 [1, 5] [µM] | EC50 ([2]; activity range) [µM] | EC50 ([3]; activity range) [µM] | EC50 [1, 6] [µM]
Nc1nc2cc(-c3ccn[nH]3)ccc2c2sc(CCNC(=O)C3CCO3)nc12 (stereo not drawn) [Example 137, N-[2-[4-amino-7-(1H-pyrazol-5-yl)-[1,3]thiazolo[4,5-c]quinolin-2-yl]ethyl]oxetane-2-carboxamide] | 1.67 | > 100 | > 100 |  |  |  | 
CC(CC(=O)NC1CCC1)n1cc2c(N)nc3cc(-c4cc[nH]n4)ccc3c2n1 (stereo not drawn) [Example 622] |  |  |  | 7.28 | > 100 | > 100 | 
Nc1nc2cc(-c3cc[nH]n3)ccc2c2cn(CCNC(=O)CC(F)(F)F)nc12 [Example 181] | 6.53 | > 100 | > 100 |  |  |  | 
Nc1nc2cc(-c3cccs3)ccc2c2cn(CCNC(=O)c3ccc(F)cn3)nc12 [Example 129] | 0.7 | > 100 | > 100 |  |  |  | 
N#CCCn1cc2c(N)nc3cc(-c4cc[nH]n4)ccc3c2n1 [Example 395] |  |  |  | 0.07 | > 100 | > 100 | 
CN(C)C(=O)NCCn1cc2c(n1)c(N)nc1cc(-c3cc[nH]n3)ccc12 [Example 116, 1-{2-[4-amino-7-(1H-pyrazol-3-yl)-2H-pyrazolo[3,4-c]quinolin-2-yl]ethyl}-3,3-dimethylurea] |  | > 100 | > 100 |  |  |  | 7.43
NC(=O)CCn1cc2c(N)nc3cc(-n4cccn4)ccc3c2n1 [Example 558] |  |  |  | 0.63 | > 100 | > 100 | 
CN(C)CCCn1cc2c(n1)c(N)nc1cc(-c3cc[nH]n3)ccc12 [Example 22] | 0.63 | > 100 | 20 to 100 |  |  |  | 
CCN(CCn1cc2c(n1)c(N)nc1cc(-c3cc[nH]n3)ccc12)C(C)=O [Example 29, N-[2-[4-amino-7-(1H-pyrazol-3-yl)-2H-pyrazolo[3,4-c]quinolin-2-yl]ethyl]-N-ethylacetamide] |  | > 100 | > 100 |  |  |  | 6.01
Nc1nc2cc(-c3cc[nH]n3)ccc2c2nn(CCNC(=O)c3cnccn3)cc12 [Example 201] | 0.48 | > 100 | > 100 |  |  |  | 
CCC(O)Cn1cc2c(N)nc3cc(-c4cc[nH]n4)ccc3c2n1 (stereo not drawn) [Example 366] | 0.42 | > 100 | > 100 |  |  |  | 
Nc1nc2cc(-c3cc[nH]n3)ccc2c2nn(CCC(=O)N3CCCC3)cc12 [Example 508] |  |  |  | 7.37 | > 100 | > 100 | 
COC1CN(CCn2cc3c(N)nc4cc(-c5ccn[nH]5)ccc4c3n2)C1 [Example 268] | 4.5 | > 100 | > 100 |  |  |  | 
Nc1nc2cc(-n3cccn3)ccc2c2c1cnn2CCCO [Example 252, 3-(4-amino-7-(1H-pyrazol-1-yl)-1H-pyrazolo[4,3-c]quinolin-1-yl)propan-1-ol] | 1.13 | > 100 | > 100 |  |  |  | 
Nc1nc2cc(-c3cc[nH]n3)ccc2c2nn(CCF)cc12 [Example 321] | 0.19 | > 100 | > 100 |  |  |  | 
